These are literature values, as cited in patent US8409610B2, “Wound care device” (Coloplast A/S, priority 2003, dated 2013).

For the data set the following is noted: reported values, given as examples.
On to `CC(C(=O)O)c1cccc(C(=O)c2ccccc2)c1` (stereo not shown) [Ketoprofen], for which the “minimum plasma concentration for obtaining systemic effect” value (“minimum plasma concentration” below) was 3 µg/mL. For `CC(C)Cc1ccc(C(C)C(=O)O)cc1` (stereo not shown) [Ibuprofen], the “minimum plasma concentration” value was 10 µg/mL. As for `CC(=O)Oc1ccccc1C(=O)O` [Acetylsalicylic acid], the “minimum plasma concentration” value was 270 µg/mL.

As for `CN1C(C(=O)Nc2ccccn2)=C(O)c2ccccc2S1(=O)=O` [Piroxicam], the “minimum plasma concentration” value was 1 µg/mL.
